# Patent publication US20240360178A1, “MACROCYCLIC IMMUNOMODULATORS” (Bristol-Myers Squibb Company, priority 2021, published 2024)
# Positions of bridges follow the written chain, without caps; N, C: chain ends. Non-standard residues stand in square brackets, D forms with d. Residues, ends and D or L forms follow the SMILES beside them. Phe(4-CH2NH2) = NCc1ccc(C[C@H](N)C(=O)O)cc1; Bip = N[C@@H](Cc1ccc(-c2ccccc2)cc1)C(=O)O; Phe(2-Cl) = N[C@@H](Cc1ccccc1Cl)C(=O)O; Phe(2-Me) = Cc1ccccc1C[C@H](N)C(=O)O; Ala(cPr) = N[C@@H](CC1CC1)C(=O)O; NMeF = CN[C@@H](Cc1ccccc1)C(=O)O; hSer = N[C@@H](CCO)C(=O)O; NMeA = CN[C@@H](C)C(=O)O; Dap = NC[C@H](N)C(=O)O; Sar = CNCC(=O)O
# Target: T1, human PD-1 (Jurkat-PD-1 cells) / PE-labeled human PD-L1-Ig (Homo sapiens, UniProt Q15116)
# T1 construct: expressed in transfected cells; host or cells: Jurkat cell line over-expressing human PD-1
# Assay: Jurkat-PD-1 Cell Binding High-Content Screening Assay (CBA); Jurkat hPD1-PDL1 assay
# Conditions: Jurkat cell line over-expressing human PD-1; PE-labeled PD-L1-Ig 20 nM final; compound incubated 2 hours at 37° C.; read-out: Jurkat HPD1-PDL1 IC50
# Method in brief: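 Jurkat cells over-expressing human PD-1, seeded in DMEM with 10% fetal calf serum, were preincubated with compound for 2 hours at 37° C. PE-labeled human PD-L1-Ig was then added at 20 nM final, and cell-bound fluorescence was read by high-content imaging.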
# T1 sequence (Q15116 25-288): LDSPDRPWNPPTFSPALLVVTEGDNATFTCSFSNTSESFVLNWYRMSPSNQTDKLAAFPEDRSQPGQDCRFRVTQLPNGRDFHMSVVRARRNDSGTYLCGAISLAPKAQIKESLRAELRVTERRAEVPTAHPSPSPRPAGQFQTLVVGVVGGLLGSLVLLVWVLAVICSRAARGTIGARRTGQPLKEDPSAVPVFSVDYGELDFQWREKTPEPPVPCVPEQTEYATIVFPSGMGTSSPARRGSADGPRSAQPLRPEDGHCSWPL
row,SMILES,IC50
1,CC(C)C[C@@H]1NC(=O)[C@H](Cc2c[nH]c3ccccc23)NC(=O)[C@H](CC(=O)O)NC(=O)[C@H](Cc2ccc(O)cc2)NC(=O)[C@H](Cc2ccc(O)cc2)NC(=O)CSC[C@@H](C(=O)NCC(N)=O)NC(=O)[C@H](CO)NC(=O)[C@H](C(C)C)NC(=O)[C@H](CC(C)C)NC(=O)[C@H](CC(N)=O)NC(=O)CN(C)C(=O)[C@H](C)N(C)C(=O)[C@H](C(C)C)NC(=O)[C@H](Cc2ccc(-c3ccccc3)cc2)NC1=O [Example 1152] ({CH2CO}-YYDWL[Bip]V[NMeA][Sar]NLVSCG-NH2; thioether N-14),740 nM
2,CC(C)C[C@@H]1NC(=O)[C@H](Cc2c[nH]c3ccccc23)NC(=O)[C@H](CC(=O)O)NC(=O)[C@H](Cc2cnc[nH]2)NC(=O)[C@H](Cc2ccccc2)NC(=O)CSC[C@@H](C(=O)NCC(N)=O)NC(=O)[C@H](CO)NC(=O)[C@H](C(C)C)NC(=O)[C@H](CC(C)C)NC(=O)[C@H](CC(N)=O)NC(=O)CN(C)C(=O)[C@H](C)N(C)C(=O)[C@H](C(C)C)NC(=O)[C@H](Cc2ccc(-c3ccccc3)cc2)NC1=O [Example 1153] ({CH2CO}-FHDWL[Bip]V[NMeA][Sar]NLVSCG-NH2; thioether N-14),760 nM
3,CC(C)C[C@@H]1NC(=O)[C@H](Cc2c[nH]c3ccccc23)NC(=O)[C@H](CC(=O)O)NC(=O)[C@H](Cc2ccc(O)cc2)NC(=O)[C@H](C(C)C)NC(=O)CSC[C@@H](C(=O)NCC(N)=O)NC(=O)[C@H](CO)NC(=O)[C@H](C(C)C)NC(=O)[C@H](CC(C)C)NC(=O)[C@H](CC(N)=O)NC(=O)CN(C)C(=O)[C@H](C)N(C)C(=O)[C@H](C(C)C)NC(=O)[C@H](Cc2ccc(-c3ccccc3)cc2)NC1=O [Example 1154] ({CH2CO}-VYDWL[Bip]V[NMeA][Sar]NLVSCG-NH2; thioether N-14),790 nM
4,CC(C)C[C@@H]1NC(=O)[C@H](CCCNC(=N)N)NC(=O)[C@H](Cc2ccccc2)N(C)C(=O)[C@H](C)N(C)C(=O)[C@H](CCCNC(=N)N)NC(=O)[C@H](Cc2ccc(-c3ccccc3)cc2)NC(=O)[C@H](C(C)C)NC(=O)[C@H](Cc2c[nH]c3ccccc23)NC(=O)[C@H](CC(=O)O)NC(=O)[C@H](Cc2ccc(O)cc2)NC(=O)[C@H](Cc2c[nH]c3ccccc23)NC(=O)CSC[C@@H](C(=O)NCC(N)=O)NC(=O)[C@H](CO)NC(=O)[C@H](C(C)C)NC1=O [Example 1157] ({CH2CO}-WYDWV[Bip]R[NMeA][NMeF]RLVSCG-NH2; thioether N-14),830 nM
5,CC(C)C[C@@H]1NC(=O)[C@H](Cc2c[nH]c3ccccc23)NC(=O)[C@H](CC(=O)O)NC(=O)[C@H](Cc2ccc(O)cc2)NC(=O)[C@H](Cc2ccc(CN)cc2)NC(=O)CSC[C@@H](C(=O)NCC(N)=O)NC(=O)[C@H](CO)NC(=O)[C@H](C(C)C)NC(=O)[C@H](CC(C)C)NC(=O)[C@H](CC(N)=O)NC(=O)CN(C)C(=O)[C@H](C)N(C)C(=O)[C@H](C(C)C)NC(=O)[C@H](Cc2ccc(-c3ccccc3)cc2)NC1=O [Example 1160] ({CH2CO}-[Phe(4-CH2NH2)]YDWL[Bip]V[NMeA][Sar]NLVSCG-NH2; thioether N-14),870 nM
6,CC(C)C[C@@H]1NC(=O)[C@H](CCCNC(=N)N)NC(=O)[C@H](Cc2ccccc2)N(C)C(=O)[C@H](C)N(C)C(=O)[C@H](CCCNC(=N)N)NC(=O)[C@H](Cc2ccc(-c3ccccc3)cc2)NC(=O)[C@H](C(C)C)NC(=O)[C@H](Cc2c[nH]c3ccccc23)NC(=O)[C@H](CC(=O)O)NC(=O)[C@H](Cc2ccc(O)cc2)NC(=O)[C@H](Cc2ccccc2)NC(=O)CSC[C@@H](C(=O)N[C@H](C(N)=O)C(C)C)NC(=O)[C@H](CO)NC(=O)[C@H](C(C)C)NC1=O [Example 1167] ({CH2CO}-FYDWV[Bip]R[NMeA][NMeF]RLVSCV-NH2; thioether N-14),910 nM

# Other lines, results leading:
row,IC50,SMILES
1,700 nM,CC(C)C[C@@H]1NC(=O)[C@H](Cc2c[nH]c3ccccc23)NC(=O)[C@H](CC(=O)O)NC(=O)[C@H](Cc2ccc(O)cc2)NC(=O)[C@H](Cc2ccccc2)NC(=O)CSC[C@@H](C(=O)N[C@H](C)C(N)=O)NC(=O)[C@H](CO)NC(=O)[C@H](C(C)C)NC(=O)[C@H](CC(C)C)NC(=O)[C@H](CC(N)=O)NC(=O)CN(C)C(=O)[C@H](C)N(C)C(=O)[C@H](C(C)C)NC(=O)[C@H](Cc2ccc(-c3ccccc3)cc2)NC1=O [Example 1151] ({CH2CO}-FYDWL[Bip]V[NMeA][Sar]NLVSC[dA]-NH2; thioether N-14)
2,810 nM,CC(C)C[C@@H]1NC(=O)[C@H](CC(N)=O)NC(=O)CN(C)C(=O)[C@H](C)N(C)C(=O)[C@H](C(C)C)NC(=O)[C@H](Cc2ccc(-c3ccccc3)cc2)NC(=O)[C@H](CC2CC2)NC(=O)[C@H](Cc2c[nH]c3ccccc23)NC(=O)[C@H](CC(=O)O)NC(=O)[C@H](Cc2ccc(O)cc2)NC(=O)[C@H](Cc2ccccc2)NC(=O)CSC[C@@H](C(=O)N[C@@H](C)C(N)=O)NC(=O)[C@H](CO)NC(=O)[C@H](C(C)C)NC1=O [Example 1155] ({CH2CO}-FYDW[Ala(cPr)][Bip]V[NMeA][Sar]NLVSCA-NH2; thioether N-14)
3,840 nM,CC(C)C[C@@H]1NC(=O)[C@H](C)NC(=O)CN(C)C(=O)[C@H](C)N(C)C(=O)[C@H](C(C)C)NC(=O)[C@H](Cc2ccc(-c3ccccc3)cc2)NC(=O)[C@H](CC(C)C)NC(=O)[C@H](Cc2c[nH]c3ccccc23)NC(=O)[C@H](CC(=O)O)NC(=O)[C@H](Cc2ccc(O)cc2)NC(=O)[C@H](Cc2ccccc2)NC(=O)CSC[C@@H](C(=O)N[C@@H](C)C(N)=O)NC(=O)[C@H](CO)NC(=O)[C@H](C(C)C)NC1=O [Example 1158] ({CH2CO}-FYDWL[Bip]V[NMeA][Sar]ALVSCA-NH2; thioether N-14)
4,860 nM,CC(C)C[C@@H]1NC(=O)[C@H](Cc2c[nH]c3ccccc23)NC(=O)[C@H](CC(=O)O)NC(=O)[C@H](Cc2ccc(O)cc2)NC(=O)[C@H](Cc2ccccc2)NC(=O)CSC[C@@H](C(=O)N[C@@H](C)C(N)=O)NC(=O)[C@H](CCO)NC(=O)[C@H](C(C)C)NC(=O)[C@H](CC(C)C)NC(=O)[C@H](CC(N)=O)NC(=O)CN(C)C(=O)[C@H](C)N(C)C(=O)[C@H](C(C)C)NC(=O)[C@H](Cc2ccc(-c3ccccc3)cc2)NC1=O [Example 1159] ({CH2CO}-FYDWL[Bip]V[NMeA][Sar]NLV[hSer]CA-NH2; thioether N-14)
5,900 nM,CC(C)C[C@@H]1NC(=O)[C@H](C)NC(=O)CN(C)C(=O)[C@H](C)N(C)C(=O)[C@H](CCC(=O)O)NC(=O)[C@H](Cc2ccc(-c3ccccc3)cc2)NC(=O)[C@H](CC(C)C)NC(=O)[C@H](Cc2c[nH]c3ccccc23)NC(=O)[C@H](CC(=O)O)NC(=O)[C@H](Cc2ccc(O)cc2)NC(=O)[C@H](Cc2ccccc2)NC(=O)CSC[C@@H](C(=O)N[C@@H](C)C(N)=O)NC(=O)[C@H](CO)NC(=O)[C@H](C(C)C)NC1=O [Example 1164] ({CH2CO}-FYDWL[Bip]E[NMeA][Sar]ALVSCA-NH2; thioether N-14)
6,900 nM,CC(C)C[C@@H]1NC(=O)[C@H](Cc2c[nH]c3ccccc23)NC(=O)[C@H](CC(=O)O)NC(=O)[C@H](Cc2ccccc2)NC(=O)[C@H](Cc2ccccc2)NC(=O)CSC[C@@H](C(=O)N[C@@H](C)C(N)=O)NC(=O)[C@H](CO)NC(=O)[C@H](C(C)C)NC(=O)[C@H](CC(C)C)NC(=O)[C@H](CC(N)=O)NC(=O)CN(C)C(=O)[C@H](C)N(C)C(=O)[C@H](C(C)C)NC(=O)[C@H](Cc2ccc(-c3ccccc3)cc2)NC1=O [Example 1165] ({CH2CO}-FFDWL[Bip]V[NMeA][Sar]NLVSCA-NH2; thioether N-14)
7,930 nM,CC(C)C[C@@H]1NC(=O)[C@H](Cc2c[nH]c3ccccc23)NC(=O)[C@H](CC(=O)O)NC(=O)[C@H](Cc2ccc(O)cc2)NC(=O)[C@H](Cc2ccccc2)NC(=O)CSC[C@@H](C(=O)N[C@@H](CN)C(N)=O)NC(=O)[C@H](CO)NC(=O)[C@H](C(C)C)NC(=O)[C@H](CC(C)C)NC(=O)[C@H](CC(N)=O)NC(=O)CN(C)C(=O)[C@H](C)N(C)C(=O)[C@H](C(C)C)NC(=O)[C@H](Cc2ccc(-c3ccccc3)cc2)NC1=O [Example 1168] ({CH2CO}-FYDWL[Bip]V[NMeA][Sar]NLVSC[Dap]-NH2; thioether N-14)
8,940 nM,CC(C)C[C@@H]1NC(=O)[C@H](Cc2ccccc2Cl)NC(=O)[C@H](CC(=O)O)NC(=O)[C@H](Cc2ccc(O)cc2)NC(=O)[C@H](Cc2ccccc2)NC(=O)CSC[C@@H](C(=O)N[C@@H](C)C(N)=O)NC(=O)[C@H](CO)NC(=O)[C@H](C(C)C)NC(=O)[C@H](CC(C)C)NC(=O)[C@H](CC(N)=O)NC(=O)CN(C)C(=O)[C@H](C)N(C)C(=O)[C@H](C(C)C)NC(=O)[C@H](Cc2ccc(-c3ccccc3)cc2)NC1=O [Example 1170] ({CH2CO}-FYD[Phe(2-Cl)]L[Bip]V[NMeA][Sar]NLVSCA-NH2; thioether N-14)
9,940 nM,CC(C)C[C@@H]1NC(=O)[C@H](Cc2c[nH]c3ccccc23)NC(=O)[C@H](CC(=O)O)NC(=O)[C@H](Cc2ccc(O)cc2)NC(=O)[C@H](Cc2ccccc2)NC(=O)CSC[C@@H](C(=O)N[C@@H](C)C(N)=O)NC(=O)[C@H]([C@@H](C)O)NC(=O)[C@H](CCCNC(=N)N)NC(=O)[C@H](CC(C)C)NC(=O)[C@H](CC(N)=O)NC(=O)[C@H]2CCCN2C(=O)[C@H](C)N(C)C(=O)[C@H](C(C)C)NC(=O)[C@H](Cc2ccc(-c3ccccc3)cc2)NC1=O [Example 1171] ({CH2CO}-FYDWL[Bip]V[NMeA][dP]NLRTCA-NH2; thioether N-14)
10,950 nM,Cc1ccccc1C[C@@H]1NC(=O)[C@H](CC(=O)O)NC(=O)[C@H](Cc2ccc(O)cc2)NC(=O)[C@H](Cc2ccccc2)NC(=O)CSC[C@@H](C(=O)N[C@@H](C)C(N)=O)NC(=O)[C@H](CO)NC(=O)[C@H](C(C)C)NC(=O)[C@H](CC(C)C)NC(=O)[C@H](CC(N)=O)NC(=O)CN(C)C(=O)[C@H](C)N(C)C(=O)[C@H](C(C)C)NC(=O)[C@H](Cc2ccc(-c3ccccc3)cc2)NC(=O)[C@H](CC(C)C)NC1=O [Example 1172] ({CH2CO}-FYD[Phe(2-Me)]L[Bip]V[NMeA][Sar]NLVSCA-NH2; thioether N-14)
